Experimental data from PubChem BioAssay (NCI).
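The compound was tested at five concentrations on cells cultured in 96-well plates, with a 48-hour exposure period. The concentration for full growth arrest is given as TGI.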

How the values were obtained:
Experiment in all cases: DTP human tumour cell line panel, 48 h
786-0 renal = tested on: 786-0 renal
A549 NSCLC = tested on: A549 NSCLC
ACHN renal = tested on: ACHN renal
BT-549 breast = tested on: BT-549 breast
CAKI-1 renal = tested on: CAKI-1 renal
CCRF-CEM leukemia = tested on: CCRF-CEM leukemia
COLO 205 colon = tested on: COLO 205 colon
DU-145 prostate = tested on: DU-145 prostate
EKVX NSCLC = tested on: EKVX NSCLC
HCC-2998 colon = tested on: HCC-2998 colon
HCT-116 colon = tested on: HCT-116 colon
HCT-15 colon = tested on: HCT-15 colon
HL-60(TB) leukemia = tested on: HL-60(TB) leukemia
HOP-62 NSCLC = tested on: HOP-62 NSCLC
HS 578T breast = tested on: HS 578T breast
HT29 colon = tested on: HT29 colon
IGROV1 ovarian = tested on: IGROV1 ovarian
K-562 leukemia = tested on: K-562 leukemia
KM12 colon = tested on: KM12 colon
LOX IMVI melanoma = tested on: LOX IMVI melanoma
M14 melanoma = tested on: M14 melanoma
MALME-3M melanoma = tested on: MALME-3M melanoma
MCF7 breast = tested on: MCF7 breast
MDA-MB-231 breast = tested on: MDA-MB-231 breast
MDA-MB-435 = tested on: MDA-MB-435
MDA-N = tested on: MDA-N
MOLT-4 leukemia = tested on: MOLT-4 leukemia
NCI-H226 lung = tested on: NCI-H226 lung
NCI-H23 lung = tested on: NCI-H23 lung
NCI-H460 lung = tested on: NCI-H460 lung
NCI-H522 lung = tested on: NCI-H522 lung
NCI/ADR-RES ovarian = tested on: NCI/ADR-RES ovarian
OVCAR-3 ovarian = tested on: OVCAR-3 ovarian
OVCAR-4 ovarian = tested on: OVCAR-4 ovarian
OVCAR-5 ovarian = tested on: OVCAR-5 ovarian
OVCAR-8 ovarian = tested on: OVCAR-8 ovarian
PC-3 prostate = tested on: PC-3 prostate
RPMI-8226 leukemia = tested on: RPMI-8226 leukemia
RXF 393 renal = tested on: RXF 393 renal
SF-268 CNS = tested on: SF-268 CNS
SF-295 CNS = tested on: SF-295 CNS
SF-539 CNS = tested on: SF-539 CNS
SK-MEL-2 melanoma = tested on: SK-MEL-2 melanoma
SK-MEL-28 melanoma = tested on: SK-MEL-28 melanoma
SK-MEL-5 melanoma = tested on: SK-MEL-5 melanoma
SK-OV-3 ovarian = tested on: SK-OV-3 ovarian
SN12C renal = tested on: SN12C renal
SNB-19 CNS = tested on: SNB-19 CNS
SNB-75 CNS = tested on: SNB-75 CNS
SR leukemia = tested on: SR leukemia
SW-620 colon = tested on: SW-620 colon
T-47D breast = tested on: T-47D breast
TK-10 renal = tested on: TK-10 renal
U251 CNS = tested on: U251 CNS
UACC-257 melanoma = tested on: UACC-257 melanoma
UACC-62 melanoma = tested on: UACC-62 melanoma
A498 renal = tested on: A498 renal
UO-31 renal = tested on: UO-31 renal

Structure (SMILES): C[C@@H](c1ccccc1)N1CN(C(=O)OCc2ccccc2)C(CO)C1=O (stereo not given in full)
- TGI (786-0 renal): > 100 µM
- TGI (A549 NSCLC): > 100 µM
- TGI (ACHN renal): > 100 µM
- TGI (BT-549 breast): > 100 µM
- TGI (CAKI-1 renal): > 100 µM
- TGI (CCRF-CEM leukemia): > 100 µM
- TGI (COLO 205 colon): > 100 µM
- TGI (DU-145 prostate): > 100 µM
- TGI (EKVX NSCLC): > 100 µM
- TGI (HCC-2998 colon): > 100 µM
- TGI (HCT-116 colon): > 100 µM
- TGI (HCT-15 colon): > 100 µM
- TGI (HL-60(TB) leukemia): > 100 µM
- TGI (HOP-62 NSCLC): > 100 µM
- TGI (HS 578T breast): > 100 µM
- TGI (HT29 colon): > 100 µM
- TGI (IGROV1 ovarian): > 100 µM
- TGI (K-562 leukemia): > 100 µM
- TGI (KM12 colon): > 100 µM
- TGI (LOX IMVI melanoma): > 100 µM
- TGI (M14 melanoma): > 100 µM
- TGI (MALME-3M melanoma): > 100 µM
- TGI (MCF7 breast): > 100 µM
- TGI (MDA-MB-231 breast): > 100 µM
- TGI (MDA-MB-435): > 100 µM
- TGI (MDA-N): > 100 µM
- TGI (MOLT-4 leukemia): > 100 µM
- TGI (NCI-H226 lung): > 100 µM
- TGI (NCI-H23 lung): > 100 µM
- TGI (NCI-H460 lung): > 100 µM
- TGI (NCI-H522 lung): > 100 µM
- TGI (NCI/ADR-RES ovarian): > 100 µM
- TGI (OVCAR-3 ovarian): > 100 µM
- TGI (OVCAR-4 ovarian): > 100 µM
- TGI (OVCAR-5 ovarian): > 100 µM
- TGI (OVCAR-8 ovarian): > 100 µM
- TGI (PC-3 prostate): > 100 µM
- TGI (RPMI-8226 leukemia): > 100 µM
- TGI (RXF 393 renal): > 100 µM
- TGI (SF-268 CNS): > 100 µM
- TGI (SF-295 CNS): > 100 µM
- TGI (SF-539 CNS): > 100 µM
- TGI (SK-MEL-2 melanoma): > 100 µM
- TGI (SK-MEL-28 melanoma): > 100 µM
- TGI (SK-MEL-5 melanoma): > 100 µM
- TGI (SK-OV-3 ovarian): > 100 µM
- TGI (SN12C renal): > 100 µM
- TGI (SNB-19 CNS): > 100 µM
- TGI (SNB-75 CNS): > 100 µM
- TGI (SR leukemia): > 100 µM
- TGI (SW-620 colon): > 100 µM
- TGI (T-47D breast): > 100 µM
- TGI (TK-10 renal): > 100 µM
- TGI (U251 CNS): > 100 µM
- TGI (UACC-257 melanoma): > 100 µM
- TGI (UACC-62 melanoma): > 100 µM

Structure (SMILES): NC(=O)c1nnsc1N/N=C/c1ccc([N+](=O)[O-])cc1
- TGI (786-0 renal): > 100 µM
- TGI (A498 renal): > 100 µM
- TGI (A549 NSCLC): > 100 µM
- TGI (ACHN renal): > 100 µM
- TGI (BT-549 breast): 88.6 µM
- TGI (CAKI-1 renal): > 100 µM
- TGI (CCRF-CEM leukemia): > 100 µM
- TGI (COLO 205 colon): > 100 µM
- TGI (DU-145 prostate): > 100 µM
- TGI (EKVX NSCLC): > 100 µM
- TGI (HCC-2998 colon): > 100 µM
- TGI (HCT-116 colon): > 100 µM
- TGI (HCT-15 colon): > 100 µM
- TGI (HL-60(TB) leukemia): > 100 µM
- TGI (HOP-62 NSCLC): > 100 µM
- TGI (HS 578T breast): > 100 µM
- TGI (HT29 colon): > 100 µM
- TGI (IGROV1 ovarian): > 100 µM
- TGI (K-562 leukemia): > 100 µM
- TGI (KM12 colon): > 100 µM
- TGI (LOX IMVI melanoma): > 100 µM
- TGI (M14 melanoma): > 100 µM
- TGI (MALME-3M melanoma): > 100 µM
- TGI (MCF7 breast): > 100 µM
- TGI (MDA-MB-231 breast): > 100 µM
- TGI (MDA-MB-435): > 100 µM
- TGI (MDA-N): > 100 µM
- TGI (MOLT-4 leukemia): > 100 µM
- TGI (NCI-H226 lung): > 100 µM
- TGI (NCI-H23 lung): > 100 µM
- TGI (NCI-H460 lung): > 100 µM
- TGI (NCI-H522 lung): > 100 µM
- TGI (NCI/ADR-RES ovarian): > 100 µM
- TGI (OVCAR-3 ovarian): > 100 µM
- TGI (OVCAR-4 ovarian): > 100 µM
- TGI (OVCAR-5 ovarian): > 100 µM
- TGI (OVCAR-8 ovarian): > 100 µM
- TGI (PC-3 prostate): > 100 µM
- TGI (RPMI-8226 leukemia): > 100 µM
- TGI (RXF 393 renal): > 100 µM
- TGI (SF-268 CNS): > 100 µM
- TGI (SF-295 CNS): > 100 µM
- TGI (SF-539 CNS): > 100 µM
- TGI (SK-MEL-2 melanoma): > 100 µM
- TGI (SK-MEL-28 melanoma): > 100 µM
- TGI (SK-MEL-5 melanoma): > 100 µM
- TGI (SK-OV-3 ovarian): > 100 µM
- TGI (SN12C renal): > 100 µM
- TGI (SNB-19 CNS): > 100 µM
- TGI (SNB-75 CNS): > 100 µM
- TGI (SR leukemia): > 100 µM
- TGI (SW-620 colon): > 100 µM
- TGI (T-47D breast): > 100 µM
- TGI (U251 CNS): > 100 µM
- TGI (UACC-257 melanoma): > 100 µM
- TGI (UACC-62 melanoma): > 100 µM
- TGI (UO-31 renal): > 100 µM

Structure (SMILES): CCOC(=O)c1nnsc1NC(=O)NCCCCCCn1c(=O)n(CCCCCCNC(=O)Nc2snnc2C(=O)OCC)c(=O)n(CCCCCCNC(=O)Nc2snnc2C(=O)OCC)c1=O
- TGI (786-0 renal): 30.3 µM
- TGI (A498 renal): > 100 µM
- TGI (A549 NSCLC): > 100 µM
- TGI (ACHN renal): > 100 µM
- TGI (BT-549 breast): > 100 µM
- TGI (CAKI-1 renal): > 100 µM
- TGI (CCRF-CEM leukemia): > 100 µM
- TGI (COLO 205 colon): > 100 µM
- TGI (DU-145 prostate): > 100 µM
- TGI (EKVX NSCLC): > 100 µM
- TGI (HCC-2998 colon): > 100 µM
- TGI (HCT-116 colon): > 100 µM
- TGI (HCT-15 colon): > 100 µM
- TGI (HOP-62 NSCLC): 69.8 µM
- TGI (HS 578T breast): 50 µM
- TGI (HT29 colon): > 100 µM
- TGI (IGROV1 ovarian): > 100 µM
- TGI (K-562 leukemia): > 100 µM
- TGI (KM12 colon): > 100 µM
- TGI (M14 melanoma): > 100 µM
- TGI (MALME-3M melanoma): 53.2 µM
- TGI (MCF7 breast): > 100 µM
- TGI (MDA-MB-231 breast): 41.1 µM
- TGI (MDA-MB-435): > 100 µM
- TGI (MDA-N): > 100 µM
- TGI (MOLT-4 leukemia): > 100 µM
- TGI (NCI-H226 lung): 47.7 µM
- TGI (NCI-H23 lung): 90.4 µM
- TGI (NCI-H460 lung): 44.3 µM
- TGI (NCI/ADR-RES ovarian): > 100 µM
- TGI (OVCAR-3 ovarian): > 100 µM
- TGI (OVCAR-4 ovarian): > 100 µM
- TGI (OVCAR-5 ovarian): > 100 µM
- TGI (OVCAR-8 ovarian): > 100 µM
- TGI (PC-3 prostate): > 100 µM
- TGI (RPMI-8226 leukemia): 46.4 µM
- TGI (RXF 393 renal): 86.2 µM
- TGI (SF-268 CNS): 48.4 µM
- TGI (SF-295 CNS): > 100 µM
- TGI (SK-MEL-2 melanoma): > 100 µM
- TGI (SK-MEL-5 melanoma): > 100 µM
- TGI (SK-OV-3 ovarian): > 100 µM
- TGI (SN12C renal): > 100 µM
- TGI (SNB-19 CNS): 38.2 µM
- TGI (SNB-75 CNS): 83 µM
- TGI (SR leukemia): > 100 µM
- TGI (SW-620 colon): > 100 µM
- TGI (T-47D breast): > 100 µM
- TGI (U251 CNS): 36.8 µM
- TGI (UACC-257 melanoma): > 100 µM
- TGI (UACC-62 melanoma): 35.1 µM
- TGI (UO-31 renal): > 100 µM
